Measured values taken from article PMC9019041, “Structural insights into the peptide selectivity and activation of human neuromedin U receptors” (Nature Communications, 2022).
Where no end group is shown, it is not given here.

Key:
Type in all cases: cell-based
Conditions in all cases: mean ± S.E.M., three independent experiments (n=3), SEM, read-out: IP1 accumulation pEC50 ± S.E.M. (converted)
[1] = target: T1, NMUR2 Y317A (Homo sapiens, UniProt Q9GZQ4, Y317A); test: IP-One assay, NMUR2 Y317A
T1 construct: expressed in transfected cells; host or cells: AD293 cells (Agilent)
Method: (§1) IP-One production was measured using the IP-One HTRF kit (Cisbio)[62]. Briefly, AD293 cells (Agilent) were grown to a density of 400,000–500,000 cells per mL and then infected with separate plasmids at a suitable concentration. The culture was collected by centrifugation 24 h after incubation at 37 °C in 5% CO2 with a Stimulation Buffer. The cell suspension was then dispensed in a white 384-well plate at a volume of 7 μl per well before adding 7 μl of ligands. The mixture was incubated for 1 h at 37 °C. IP-One-d2 and anti-IP-One Cryptate dissolved in Lysis Buffer (3 μl each) were subsequently added and incubated for 15-30 min at room temperature before measurement. Intracellular IP-One measurement was carried with the IP-One HTRF kit and EnVision multi-plate reader (PerkinElmer) according to the manufacturer’s instructions. Data were normalized to the baseline response of the ligand.
(§2) The significance was determined with two-side, one-way ANOVA with Tukey’s test, and ^*P < 0.05 was considered statistically significant.

[2] = target: T2, NMUR1 N124A (Homo sapiens, UniProt Q9HB89, N124A); test: IP-One assay, NMUR1 N124A
T2 construct: The full-length human NMUR1 and NMUR2 were modified; expressed in transfected cells; host or cells: AD293 cells
Method: as §1, §2

[3] = target: T3, NMUR1 W320A (Homo sapiens, UniProt Q9HB89, W320A); test: IP-One assay, NMUR1 W320A
T3 construct: The full-length human NMUR1 and NMUR2 were modified; expressed in transfected cells; host or cells: AD293 cells
Method: as §1, §2

[4] = target: T4, NMUR2 H309A (Homo sapiens, UniProt Q9GZQ4, H309A); test: IP-One assay, NMUR2 H309A
T4 construct: expressed in transfected cells; host or cells: AD293 cells
Method: as §1, §2

[5] = target: T5, NMUR2 T123A (Homo sapiens, UniProt Q9GZQ4, T123A); test: IP-One assay, NMUR2 T123A
T5 construct: expressed in transfected cells; host or cells: AD293 cells
Method: as §1, §2

[6] = target: T6, NMUR2 E105A (Homo sapiens, UniProt Q9GZQ4, E105A); test: IP-One assay, NMUR2 E105A
T6 construct: expressed in transfected cells; host or cells: AD293 cells
Method: as §1, §2

[7] = target: T7, NMUR1 H338A (Homo sapiens, UniProt Q9HB89, H338A); test: IP-One assay, NMUR1 H338A
T7 construct: The full-length human NMUR1 and NMUR2 were modified; expressed in transfected cells; host or cells: AD293 cells
Method: as §1, §2

[8] = target: T8, NMUR2 M106A (Homo sapiens, UniProt Q9GZQ4, M106A); test: IP-One assay, NMUR2 M106A
T8 construct: expressed in transfected cells; host or cells: AD293 cells
Method: as §1, §2

[9] = target: T9, NMUR1 F141A (Homo sapiens, UniProt Q9HB89, F141A); test: IP-One assay, NMUR1 F141A
T9 construct: The full-length human NMUR1 and NMUR2 were modified; expressed in transfected cells; host or cells: AD293 cells
Method: as §1, §2

[10] = target: T10, NMUR1 F313A (Homo sapiens, UniProt Q9HB89, F313A); test: IP-One assay, NMUR1 F313A
T10 construct: The full-length human NMUR1 and NMUR2 were modified; expressed in transfected cells; host or cells: AD293 cells
Method: as §1, §2

[11] = target: T11, NMUR2 Y213A (Homo sapiens, UniProt Q9GZQ4, Y213A); test: IP-One assay, NMUR2 Y213A
T11 construct: expressed in transfected cells; host or cells: AD293 cells
Method: as §1, §2

[12] = target: T12, NMUR1 Y125A (Homo sapiens, UniProt Q9HB89, Y125A); test: IP-One assay, NMUR1 Y125A
T12 construct: The full-length human NMUR1 and NMUR2 were modified; expressed in transfected cells; host or cells: AD293 cells
Method: as §1, §2

[13] = target: T13, NMUR1 Q335A (Homo sapiens, UniProt Q9HB89, Q335A); test: IP-One assay, NMUR1 Q335A
T13 construct: The full-length human NMUR1 and NMUR2 were modified; expressed in transfected cells; host or cells: AD293 cells
Method: as §1, §2

[14] = target: T14, NMUR1 H200A (Homo sapiens, UniProt Q9HB89, H200A); test: IP-One assay, NMUR1 H200A
T14 construct: The full-length human NMUR1 and NMUR2 were modified; expressed in transfected cells; host or cells: AD293 cells
Method: as §1, §2

[15] = target: T15, NMUR1 E142A (Homo sapiens, UniProt Q9HB89, E142A); test: IP-One assay, NMUR1 E142A
T15 construct: The full-length human NMUR1 and NMUR2 were modified; expressed in transfected cells; host or cells: AD293 cells
Method: as §1, §2

[16] = target: T16, NMUR2 F44A (Homo sapiens, UniProt Q9GZQ4, F44A); test: IP-One assay, NMUR2 F44A
T16 construct: The full-length human NMUR1 and NMUR2 were modified; expressed in transfected cells; host or cells: AD293 cells
Method: as §1, §2

[17] = target: T17, NMUR1 E117A (Homo sapiens, UniProt Q9HB89, E117A); test: IP-One assay, NMUR1 E117A
T17 construct: The full-length human NMUR1 and NMUR2 were modified; expressed in transfected cells; host or cells: AD293 cells
Method: as §1, §2

[18] = target: T18, NMUR2 F316A (Homo sapiens, UniProt Q9GZQ4, F316A); test: IP-One assay, NMUR2 F316A
T18 construct: expressed in transfected cells; host or cells: AD293 cells (Agilent)
Method: as §1, §2

[19] = target: T19, NMUR2 V310A (Homo sapiens, UniProt Q9GZQ4, V310A); test: IP-One assay, NMUR2 V310A
T19 construct: expressed in transfected cells; host or cells: AD293 cells
Method: as §1, §2

[20] = target: T20, NMUR2 N109A (Homo sapiens, UniProt Q9GZQ4, N109A); test: IP-One assay, NMUR2 N109A
T20 construct: expressed in transfected cells; host or cells: AD293 cells
Method: as §1, §2

[21] = target: T21, NMUR2 T205A (Homo sapiens, UniProt Q9GZQ4, T205A); test: IP-One assay, NMUR2 T205A
T21 construct: expressed in transfected cells; host or cells: AD293 cells
Method: as §1, §2

[22] = target: T22, NMUR2 N306A (Homo sapiens, UniProt Q9GZQ4, N306A); test: IP-One assay, NMUR2 N306A
T22 construct: expressed in transfected cells; host or cells: AD293 cells
Method: as §1, §2

[23] = target: T23, NMUR1 V339A (Homo sapiens, UniProt Q9HB89, V339A); test: IP-One assay, NMUR1 V339A
T23 construct: The full-length human NMUR1 and NMUR2 were modified; expressed in transfected cells; host or cells: AD293 cells
Method: as §1, §2

[24] = target: T24, NMUR2 E127A (Homo sapiens, UniProt Q9GZQ4, E127A); test: IP-One assay, NMUR2 E127A
T24 construct: expressed in transfected cells; host or cells: AD293 cells
Method: as §1, §2

[25] = target: T25, NMUR2 F291A (Homo sapiens, UniProt Q9GZQ4, F291A); test: IP-One assay, NMUR2 F291A
T25 construct: expressed in transfected cells; host or cells: AD293 cells
Method: as §1, §2

[26] = target: T26, NMUR2 W297A (Homo sapiens, UniProt Q9GZQ4, W297A); test: IP-One assay, NMUR2 W297A
T26 construct: expressed in transfected cells; host or cells: AD293 cells
Method: as §1, §2

T14 sequence (Q9HB89 whole entry H200A): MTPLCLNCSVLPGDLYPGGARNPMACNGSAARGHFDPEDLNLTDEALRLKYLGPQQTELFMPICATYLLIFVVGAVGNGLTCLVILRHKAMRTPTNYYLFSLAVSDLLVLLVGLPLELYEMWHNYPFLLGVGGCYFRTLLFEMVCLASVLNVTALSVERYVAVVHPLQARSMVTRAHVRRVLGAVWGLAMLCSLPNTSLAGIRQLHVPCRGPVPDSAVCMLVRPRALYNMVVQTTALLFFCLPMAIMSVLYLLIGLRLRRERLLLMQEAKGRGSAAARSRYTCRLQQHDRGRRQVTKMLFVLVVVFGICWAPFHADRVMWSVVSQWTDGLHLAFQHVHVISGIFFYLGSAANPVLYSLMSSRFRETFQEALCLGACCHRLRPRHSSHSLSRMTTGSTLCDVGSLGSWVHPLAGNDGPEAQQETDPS
T17 sequence (Q9HB89 whole entry E117A): as the sequence (Q9HB89 whole entry H200A) above, with E117A, A200H counted along it
T11 sequence (Q9GZQ4 whole entry Y213A): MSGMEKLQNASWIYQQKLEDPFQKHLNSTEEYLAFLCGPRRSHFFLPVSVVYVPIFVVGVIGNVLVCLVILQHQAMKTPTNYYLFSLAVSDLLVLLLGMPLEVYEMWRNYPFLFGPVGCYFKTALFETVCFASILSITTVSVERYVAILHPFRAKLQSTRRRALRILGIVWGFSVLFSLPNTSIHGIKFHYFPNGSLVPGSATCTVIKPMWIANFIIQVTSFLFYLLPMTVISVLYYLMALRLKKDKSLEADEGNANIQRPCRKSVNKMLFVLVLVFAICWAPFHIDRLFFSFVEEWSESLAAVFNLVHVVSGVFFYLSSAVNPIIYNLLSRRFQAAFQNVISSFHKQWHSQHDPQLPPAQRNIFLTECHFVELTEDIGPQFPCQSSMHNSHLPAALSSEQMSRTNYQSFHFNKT
T10 sequence (Q9HB89 whole entry F313A): as the sequence (Q9HB89 whole entry H200A) above, with A200H, F313A counted along it
T8 sequence (Q9GZQ4 whole entry M106A): as the sequence (Q9GZQ4 whole entry Y213A) above, with M106A, A213Y counted along it
T6 sequence (Q9GZQ4 whole entry E105A): as the sequence (Q9GZQ4 whole entry Y213A) above, with E105A, A213Y counted along it
T25 sequence (Q9GZQ4 whole entry F291A): as the sequence (Q9GZQ4 whole entry Y213A) above, with A213Y, F291A counted along it
T15 sequence (Q9HB89 whole entry E142A): as the sequence (Q9HB89 whole entry H200A) above, with E142A, A200H counted along it
T19 sequence (Q9GZQ4 whole entry V310A): as the sequence (Q9GZQ4 whole entry Y213A) above, with A213Y, V310A counted along it
T9 sequence (Q9HB89 whole entry F141A): as the sequence (Q9HB89 whole entry H200A) above, with F141A, A200H counted along it
T12 sequence (Q9HB89 whole entry Y125A): as the sequence (Q9HB89 whole entry H200A) above, with Y125A, A200H counted along it
T2 sequence (Q9HB89 whole entry N124A): as the sequence (Q9HB89 whole entry H200A) above, with N124A, A200H counted along it
T1 sequence (Q9GZQ4 whole entry Y317A): as the sequence (Q9GZQ4 whole entry Y213A) above, with A213Y, Y317A counted along it
T7 sequence (Q9HB89 whole entry H338A): as the sequence (Q9HB89 whole entry H200A) above, with A200H, H338A counted along it
T13 sequence (Q9HB89 whole entry Q335A): as the sequence (Q9HB89 whole entry H200A) above, with A200H, Q335A counted along it
T26 sequence (Q9GZQ4 whole entry W297A): as the sequence (Q9GZQ4 whole entry Y213A) above, with A213Y, W297A counted along it
T18 sequence (Q9GZQ4 whole entry F316A): as the sequence (Q9GZQ4 whole entry Y213A) above, with A213Y, F316A counted along it
T21 sequence (Q9GZQ4 whole entry T205A): as the sequence (Q9GZQ4 whole entry Y213A) above, with T205A, A213Y counted along it
T20 sequence (Q9GZQ4 whole entry N109A): as the sequence (Q9GZQ4 whole entry Y213A) above, with N109A, A213Y counted along it
T4 sequence (Q9GZQ4 whole entry H309A): as the sequence (Q9GZQ4 whole entry Y213A) above, with A213Y, H309A counted along it
T23 sequence (Q9HB89 whole entry V339A): as the sequence (Q9HB89 whole entry H200A) above, with A200H, V339A counted along it
T16 sequence (Q9GZQ4 whole entry F44A): as the sequence (Q9GZQ4 whole entry Y213A) above, with F44A, A213Y counted along it
T5 sequence (Q9GZQ4 whole entry T123A): as the sequence (Q9GZQ4 whole entry Y213A) above, with T123A, A213Y counted along it
T22 sequence (Q9GZQ4 whole entry N306A): as the sequence (Q9GZQ4 whole entry Y213A) above, with A213Y, N306A counted along it
T24 sequence (Q9GZQ4 whole entry E127A): as the sequence (Q9GZQ4 whole entry Y213A) above, with E127A, A213Y counted along it
T3 sequence (Q9HB89 whole entry W320A): as the sequence (Q9HB89 whole entry H200A) above, with A200H, W320A counted along it

For “FRVDEEFQSPFASQSRGYFLFRPRN-NH2 [NMU, neuromedin U]”, the EC50 [1] was 2.63 nM, the EC50 [2] was 6.92 nM and the EC50 [3] was 2880 nM. For the same substance, the EC50 [4] was 0.646 nM, the EC50 [5] was 9.77 nM and the EC50 [6] was 11.7 nM. The EC50 [7] was 29.5 nM, the EC50 [8] was 19.5 nM and the EC50 [9] was 115 nM. It also gave an EC50 [10] of 209 nM, an EC50 [11] of 7.24 nM and an EC50 [12] of 20 nM. For the same substance, the EC50 [13] was 18.2 nM, the EC50 [14] was 41.7 nM and the EC50 [15] was 47.9 nM. It also gave an EC50 [16] of 102 nM, an EC50 [17] of 1070 nM and an EC50 [18] of 8.71 nM. For the same substance, the EC50 [19] was 0.631 nM, the EC50 [20] was 7.24 nM and the EC50 [21] was 1.95 nM. The EC50 [22] was 10 nM, the EC50 [23] was 11.5 nM and the EC50 [24] was 43.7 nM. For the same substance, the EC50 [25] was 4.68 nM and the EC50 [26] was 66.1 nM.
